Laboratory results: patent US20250186600A1, “EXCIPIENT COMPOUNDS FOR PROTEIN FORMULATIONS” (Comera Life Sciences, Inc., priority 2020, published 2025)
Counter-ions that a name gives are not always drawn. One block for each compound: values may come before it. Residues, ends and D or L forms follow the SMILES beside them.

Experiments:
omalizumab [1] = experiment: Viscosity of omalizumab solution by DLS of gold nanoparticles (Example 62); conditions: omalizumab approximately 200 mg/mL, excipient 0.1M or lower, His HCl pH 6.0, 25° C.
omalizumab [2] = experiment: Diffusion interaction parameter kD of omalizumab by DLS (Example 62); conditions: omalizumab 10 to 0.6 mg/mL, 0.1M excipient, His HCl pH 6.0, 25° C.
ustekinumab [3] = experiment: Urea denaturation, Sypro orange fluorescence (Example 44); assay type: physicochemical; conditions: excipient 5 mg/mL, ustekinumab 1 mg/mL, 6M urea, 20 mM histidine pH 6.0, Sypro orange fluorescence
Excerpt: It is known that urea denatures proteins in solution and causes them to unfold. The screening methodology in this example involved adding a specific concentration of urea to a therapeutic protein solution such as ustekinumab. […] One method to track protein unfolding involves the use of extrinsic fluorescent dyes such as Sypro orange. Sypro orange binds to hydrophobic regions in the unfolded protein structure, leading to an increase in the fluorescence signal observed. Measuring the differences in the fluorescence intensity of unfolded protein-Sypro orange complex in presence of different excipients thus allows one to identify any stabilizing effects.
All excipients used in this Example, listed in Table 45 below, were of the highest purity, and were obtained from Sigma Aldrich (St. Louis, MO) or Cayman Chemical (Ann Arbor, MI). […] This urea stock solution was then added to a final concentration of 6M to produce the test solutions (excipient plus protein plus urea). […] The pH of the mixture was rechecked and confirmed to be at pH 6.0. The test solutions were allowed to incubate at room temperature for 30 min.

ustekinumab [4] = experiment: Stabilization at low pH, Sypro orange fluorescence (Example 45); conditions: excipient 5 mg/mL, ustekinumab 1 mg/mL, glycine acidification buffer pH 2.6, Sypro orange fluorescence
omalizumab [5] = experiment: DLS viscosity of concentrated omalizumab (Example 54); assay type: physicochemical; conditions: concentrated omalizumab 9 parts : 1 part excipient stock (1 M or solubility limit), 20 mM HisHCl pH 6
Procedure: Hordenine HCl was purchased from Bulk Supplements (Henderson, NV).
The concentrated protein formulation was then combined with a stock excipient solution or a control at a ratio of 9 parts protein: 1 part excipient solution or buffer (for the control), and aliquots were added to the wells of a 384 well microplate (Aurora Microplates, Whitefish, MT). […] After the microplate was shaken, 2 microliters of a 5-fold dilution of polyethylene glycol surface-modified gold nanoparticles having a diameter of 100 nm (nanoComposix, San Diego, CA) in 20 mM His HCl were added to each sample well. […] In this example, the ratio of apparent radius to the actual radius of the gold nanoparticle was multiplied by the viscosity of water at 25° C. to calculate the viscosity of the protein formulation in centipoise (cP).

Compound: NC(C(=O)O)C(O)c1ccccc1 (racemic) [DL-3-phenylserine]
- Viscosity normalized to control (omalizumab [1]; Table 62B series): 1.04
- kD (omalizumab [2]; Table 62B series): -30.7 mL/g

Compound: NCCCN [1,3-Diaminopropane]
- Viscosity normalized to control (omalizumab [1]; Table 62A series): 0.49
- kD (omalizumab [2]; Table 62A series): -11.3 mL/g

- Viscosity normalized to control (omalizumab [1]; Table 62A series): 0.98
- kD (omalizumab [2]; Table 62A series): -30.9 mL/g
Compound: CN1CCN(C)C1=O [1,3-Dimethyl-2-imidazolidinone]

Compound: NCCCN [1,3-diaminopropane]
- Viscosity normalized to control (omalizumab [1]; Table 62B series): 0.22
- kD (omalizumab [2]; Table 62B series): -11.4 mL/g

- Viscosity normalized to control (omalizumab [1]; Table 62A series): 0.83
- kD (omalizumab [2]; Table 62A series): -25.1 mL/g
Compound: O=S(=O)(O)c1cccc2c(S(=O)(=O)O)cccc12 [1,5-naphthalenedisulfonic acid]

- % increased stability (ustekinumab [3]): 9.0%
Compound: O=C(O)CCCc1ccccc1 [4-phenylbutyric acid]

- Viscosity normalized to control (omalizumab [1]; Table 62A series): 0.93
- kD (omalizumab [2]; Table 62A series): -31.9 mL/g
Compound: O=C(O)c1cccc(O)n1 [6-hydroxypyridine-2-carboxylic acid]

- Viscosity normalized to control (omalizumab [1]; Table 62A series): 0.71
Compound: COC(=O)[C@H](Cc1ccccc1)NC(=O)[C@@H](N)CC(=O)O [Aspartame] (H-Asp-Phe-OMe)

- % change in stability (ustekinumab [4]): 1.8%
Compound: OC[C@@H](O)[C@@H](O)CO [Erythritol]

- DLS Viscosity, Replicate 1 (omalizumab [5]): 53.4 cP
- DLS Viscosity, Replicate 2 (omalizumab [5]): 54.8 cP
Compound: Cn1ccnc1 [Excipient 1-methylimidazole, 1-methylimidazole]

- DLS Viscosity, Replicate 1 (omalizumab [5]): 26.0 cP
Compound: CCCCc1ncc[nH]1 [Excipient 2-butylimidazole, 2-butylimidazole]

- DLS Viscosity, Replicate 1 (omalizumab [5]): 57.5 cP
- DLS Viscosity, Replicate 2 (omalizumab [5]): 71.8 cP
Compound: CCc1ncc[nH]1 [Excipient 2-ethylimidazole, 2-ethylimidazole]

- DLS Viscosity, Replicate 1 (omalizumab [5]): 65.6 cP
- DLS Viscosity, Replicate 2 (omalizumab [5]): 81.3 cP
Compound: Cc1ncc[nH]1 [Excipient 2-methylimidazole, 2-methylimidazole]

Compound: Nc1ccncc1 [Excipient 4-aminopyridine, 4-aminopyridine]
- Viscosity normalized to control (omalizumab [1]; Table 62B series): 0.59
- kD (omalizumab [2]; Table 62B series): -22.5 mL/g

Compound: CN(C)CCc1ccc(O)cc1 [Hordenine HCl]
- DLS Viscosity, Replicate 1 (omalizumab [5]): 36.9 cP
- DLS Viscosity, Replicate 2 (omalizumab [5]): 22.8 cP

- % change in stability (ustekinumab [4]): 0.6%
Compound: OC[C@@H](O)[C@@H](O[C@@H]1O[C@H](CO)[C@H](O)[C@H](O)[C@H]1O)[C@H](O)[C@@H](O)CO [Lactitol]

- % change in stability (ustekinumab [4]): 9.4%
Compound: OC[C@H]1OC(O)[C@@H](O)[C@@H](O)[C@@H]1O (stereo partly drawn) [Mannose]

- DLS Viscosity, Replicate 1 (omalizumab [5]): 60.1 cP
- DLS Viscosity, Replicate 2 (omalizumab [5]): 33.9 cP
Compound: CN[C@@H]1[C@H](O)[C@H](NC)[C@H]2O[C@@]3(O)C(=O)C[C@@H](C)O[C@H]3O[C@@H]2[C@H]1O [Spectinomycin]

Compound: CC[N+](CC)(CC)CC.Cl [Tetraethylammonium HCl]
- DLS Viscosity, Replicate 1 (omalizumab [5]): 73.7 cP
- DLS Viscosity, Replicate 2 (omalizumab [5]): 58.3 cP

Compound: NCC(=O)NCC(=O)NCC(=O)NCC(=O)O [Tetraglycine] (H-GGGG-OH)
- DLS Viscosity, Replicate 1 (omalizumab [5]): 89.7 cP
- DLS Viscosity, Replicate 2 (omalizumab [5]): 72.2 cP

Compound: NCCc1c[nH]c2ccccc12 [Tryptamine]
- % increased stability (ustekinumab [3]): 11.6%

- % increased stability (ustekinumab [3]): 1.4%
Compound: NC(=NO)c1ccccc1 [benzamide oxime]

- Viscosity normalized to control (omalizumab [1]; Table 62A series): 0.73
- kD (omalizumab [2]; Table 62A series): -33.9 mL/g
Compound: O=C(O)/C=C/c1ccc(O)c(O)c1 [caffeic acid]

- Viscosity normalized to control (omalizumab [1]; Table 62B series): 0.73
- kD (omalizumab [2]; Table 62B series): -18.5 mL/g
Compound: NCCS [cysteamine HCl]

- Viscosity normalized to control (omalizumab [1]; Table 62B series): 1.10
- kD (omalizumab [2]; Table 62B series): -31.2 mL/g
Compound: OCCN(CCO)c1nc(N2CCCCC2)c2nc(N(CCO)CCO)nc(N3CCCCC3)c2n1 [dipyridamole]

- Viscosity normalized to control (omalizumab [1]; Table 62B series): 0.51
- kD (omalizumab [2]; Table 62B series): -22.4 mL/g
Compound: NCCO [ethanolamine HCl]

- Viscosity normalized to control (omalizumab [1]; Table 62B series): 0.93
- kD (omalizumab [2]; Table 62B series): -34.9 mL/g
Compound: Nc1nc(=O)c2c([nH]1)NCC(CNc1ccc(C(=O)N[C@@H](CCC(=O)[O-])C(=O)[O-])cc1)N2C=O.[Ca+2] (stereo partly drawn) [folinic acid calcium salt]

- % increased stability (ustekinumab [3]): 4.4%
Compound: O=C(O)c1ccncc1 [isonicotinic acid]

Compound: NCCCC[C@H](N)C(=O)O [lysine]
- Viscosity normalized to control (omalizumab [1]; Table 62B series): 0.46
- kD (omalizumab [2]; Table 62B series): -10.1 mL/g

- Viscosity normalized to control (omalizumab [1]; Table 62B series): 0.22
- kD (omalizumab [2]; Table 62B series): -13.1 mL/g
Compound: NCc1cccc(CN)c1 [m-xylylenediamine]

- Viscosity normalized to control (omalizumab [1]; Table 62B series): 0.83
- kD (omalizumab [2]; Table 62B series): -31.4 mL/g
Compound: NC(=O)c1ccc[n+]([C@@H]2O[C@H](COP(=O)([O-])O)[C@@H](O)[C@H]2O)c1 [nicotinamide mononucleotide]

Compound: O=C(O)c1cccnc1 [nicotinic acid]
- Viscosity normalized to control (omalizumab [1]; Table 62B series): 0.55
- kD (omalizumab [2]; Table 62B series): -24.5 mL/g

- % increased stability (ustekinumab [3]): 2.7%
Compound: Nc1ccc(C(=O)O)cc1 [p-aminobenzoic acid]

- Viscosity normalized to control (omalizumab [1]; Table 62B series): 0.67
- kD (omalizumab [2]; Table 62B series): -24.2 mL/g
Compound: O=C(O)[C@]1(O)C[C@@H](O)[C@@H](O)[C@H](O)C1 [quinic acid]

- Viscosity normalized to control (omalizumab [1]; Table 62B series): 1.33
- kD (omalizumab [2]; Table 62B series): -29.9 mL/g
Compound: CNCC(=O)O [sarcosine]

- Viscosity normalized to control (omalizumab [1]; Table 62B series): 0.31
- kD (omalizumab [2]; Table 62B series): -13.7 mL/g
Compound: NCCCCNCCCN [spermidine]

Compound: Pyridyl ethylamine
- % change in stability (ustekinumab [4]): 85.6%
